Entries after “also recorded” stand apart in the source; their conditions may differ.
Tests used:
[1] = Absorption by the organism / through the intestines; format: in vivo; settings: compound according to the invention; no test data shown
E. Coli = experiment: Minimal inhibiting concentration (MIC), agar-diffusion technique, series diluting method; format: cell-based; settings: in vitro; norfloxacin dissolved in dimethyl-sulphoxide, THA salt in water; listed as Norfloxacin-THA-salt
Staphylococcus aureus = experiment: as above; settings: norfloxacin dissolved in dimethyl-sulphoxide, THA salt in water
[2] = Watersolubility (literature / general statement); format: physicochemical; settings: water, new compound of the Formula I
Pseudomonas Aeruginosa = experiment: Minimal inhibiting concentration (MIC), agar-diffusion technique, series diluting method; settings: norfloxacin dissolved in dimethyl-sulphoxide, THA salt in water
[3] = because of the low solubility; cited from earlier work
[4] = test system: Pseudomonas aeruginosa and gram positive and gram negative bacteria; settings: Antimicrobial Agents and Chemotherapy 1980, 17, 103-108; cited from earlier work
[5] = in vitro, listed as Norfloxacin-THA-salt

CCn1cc(C(=O)O)c(=O)c2cc(F)c(N3CCNCC3)cc21 [Compound of the Formula I, N,N,N-trimethyl-2-hydroxyethyl-ammonium-[1-ethyl-6-fluoro-4-oxo-7-(1-piperazinyl)-1,4-dihydro-quinoline-3-carboxylate]]
absorption (in words) [1]: better absorption; also recorded: quick absorption; also recorded: excellent absorption | biological utilization [1]: good biological utilization | MIC value (E. Coli): 0.05 to 0.25 µg/mL | MIC value (Staphylococcus aureus; [5]): 0.25 µg/mL | solubility [2]: > 1000 mg/mL | MIC value (Pseudomonas Aeruginosa; [5]): 0.25 to 0.5 µg/mL

CCn1cc(C(=O)O)c(=O)c2cc(F)c(N3CCNCC3)cc21 [Norfloxacin, 1-ethyl-4-oxo-6-fluoro-7-(1-piperazinyl)-1,4-dihydro-quinoline-3-carboxylic acid, reference compound]
material absorbed going through the intestines [3]: about 40% | MIC (Staphylococcus aureus; Staphylococcus aureus, read-out: MIC value, in vitro): 0.25 to 0.5 µg/mL | MIC (Pseudomonas Aeruginosa; Pseudomonas aeruginosa, read-out: MIC value, in vitro): 0.5 to 0.75 µg/mL | activity in the therapy of urethral infections [4]: good activity
